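How tested: cells in 96-well plates exposed to compound for 48 hours at five concentrations. GI50 is the concentration that inhibits growth by half. TGI denotes the concentration required for complete inhibition of growth.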
Experiments:
Assay in all cases: NCI-60 cell line screen, 48 h
[1] = system: KM12 colon
[2] = system: SF-295 CNS
[3] = system: SF-268 CNS
[4] = system: SNB-19 CNS
[5] = system: BT-549 breast
[6] = system: UACC-257 melanoma
[7] = system: 786-0 renal
[8] = system: NCI-H460 lung
[9] = system: A549 NSCLC
[10] = system: MOLT-4 leukemia

## c1cncc(C(Nc2cccc3cccnc23)Nc2cccc3cccnc23)c1
[1]
  TGI: > 100 µM
[2]
  TGI: > 100 µM
[3]
  TGI: > 100 µM
[4]
  TGI: > 100 µM
[5]
  TGI: > 100 µM
[6]
  TGI: > 100 µM
[7]
  TGI: > 100 µM
[8]
  TGI: > 100 µM
[9]
  TGI: > 100 µM

## Cc1c(C(=O)CC(=O)C(=O)Nc2cccc(C(F)(F)F)c2)[n+](=O)c2ccccc2n1[O-]
[1]
  TGI: 21.7 µM
[2]
  TGI: 23.4 µM
[3]
  TGI: 14.4 µM
[4]
  TGI: 19.9 µM
[6]
  TGI: 6.73 µM
[7]
  TGI: 21.5 µM
[8]
  TGI: 8.5 µM
[9]
  TGI: 32.1 µM
[10]
  TGI: 7.56 µM

## COC1CC(OS(=O)(=O)c2ccc(C)cc2)C(OS(=O)(=O)c2ccc(C)cc2)C(COS(=O)(=O)c2ccc(C)cc2)O1 (configuration not stated)
[1]
  TGI: > 100 µM
[2]
  TGI: 4.38 µM
[3]
  TGI: 3.02 µM
[4]
  TGI: 5.58 µM
[6]
  TGI: 21 µM
[7]
  TGI: 4.06 µM
[8]
  TGI: 24.7 µM
[9]
  TGI: 19.3 µM
[10]
  TGI: > 100 µM

## CC[O-].CC[O-].O=Nc1ccc2cc([O-])ccc2c1.O=Nc1ccc2cc([O-])ccc2c1.[Ti+4]
[1]
  GI50: 1.94 µM
  TGI: 4.65 µM
[2]
  GI50: 1.8 µM
  TGI: 10.5 µM
[3]
  GI50: 2.29 µM
  TGI: 5.78 µM
[4]
  GI50: 3.61 µM
  TGI: 13.2 µM
[6]
  GI50: 1.61 µM
  TGI: 3.14 µM
[7]
  GI50: 1.61 µM
  TGI: 3.05 µM
[8]
  GI50: 3.1 µM
  TGI: > 100 µM
[9]
  GI50: 2.14 µM
  TGI: 4.85 µM

## CCOC(=O)C#Cc1ccc(C#CC(=O)OCC)cc1
[1]
  TGI: > 21.2 µM
[2]
  TGI: > 32.1 µM
[3]
  TGI: > 22.4 µM
[4]
  TGI: > 38.3 µM
[5]
  TGI: > 21.7 µM
[6]
  TGI: > 56.4 µM
[7]
  TGI: > 27.9 µM
[8]
  TGI: > 46.8 µM
[9]
  TGI: > 37.5 µM

## CC(C)(C)C(=O)C(c1ccc(-c2cscn2)cc1)c1ccc(-c2cscn2)cc1
[1]
  TGI: > 100 µM
[2]
  TGI: 84.5 µM
[3]
  TGI: 97.5 µM
[4]
  TGI: > 69.7 µM
[6]
  TGI: > 100 µM
[7]
  TGI: 78.7 µM
[8]
  TGI: > 100 µM
[9]
  TGI: > 100 µM
[10]
  TGI: > 100 µM

## CC1OC(OC2C(Oc3cc(O)c4c(=O)cc(-c5ccc(O)cc5)oc4c3)OC(CO)C(O)C2O)C(O)C(O)C1O (configuration not stated)
[1]
  TGI: > 100 µM
[2]
  TGI: > 100 µM
[3]
  TGI: > 100 µM
[4]
  TGI: > 100 µM
[6]
  TGI: > 100 µM
[7]
  TGI: > 100 µM
[8]
  TGI: > 100 µM
[9]
  TGI: > 100 µM
[10]
  TGI: > 100 µM

## CCOC(=O)NC(=O)c1cn(CCCOC(=O)CCCCCCCCC(=O)OCCCn2cc(C(=O)NC(=O)OCC)c(=O)[nH]c2=O)c(=O)[nH]c1=O
[2]
  TGI: 50.2 µM
[4]
  TGI: 57.4 µM
[6]
  TGI: 48.4 µM
[7]
  TGI: 84.5 µM
[8]
  TGI: > 100 µM
[9]
  TGI: > 100 µM
[10]
  TGI: 95.9 µM

## O[C@]12CCCC[C@H]1CCC2
[1]
  TGI: > 100 µM
[2]
  TGI: > 100 µM
[3]
  TGI: > 100 µM
[4]
  TGI: > 100 µM
[6]
  TGI: > 100 µM
[7]
  TGI: > 100 µM
[8]
  TGI: > 100 µM
[9]
  TGI: > 100 µM
[10]
  TGI: > 100 µM

## Cc1ccc(C2=Nc3ccccc3NC(=O)C2)cc1
[1]
  TGI: > 100 µM
[2]
  TGI: > 100 µM
[3]
  TGI: > 100 µM
[4]
  TGI: > 100 µM
[6]
  TGI: > 100 µM
[7]
  TGI: > 100 µM
[8]
  TGI: > 100 µM
[9]
  TGI: > 100 µM
[10]
  TGI: > 100 µM

## COc1ccc(C(=O)/C=C/c2cc(C(=O)c3cc(OC)c(OC)c(OC)c3)ccc2OC)cc1
[2]
  GI50: 6.27 µM
  TGI: > 100 µM
[3]
  GI50: 3.51 µM
  TGI: > 100 µM
[4]
  GI50: 4.54 µM
  TGI: > 100 µM
[5]
  GI50: 2.85 µM
  TGI: > 100 µM
[7]
  GI50: 7.71 µM
  TGI: > 100 µM
[9]
  GI50: > 100 µM
  TGI: > 100 µM

## Cc1c(Cl)cccc1NC(=O)c1sc2nc3c(cc2c1N)CCCCCC3
[1]
  GI50: 0.197 µM
  TGI: > 50 µM
[2]
  GI50: 0.168 µM
  TGI: 13 µM
[3]
  GI50: 0.821 µM
  TGI: > 50 µM
[4]
  GI50: 0.258 µM
  TGI: 28.5 µM
[5]
  GI50: 0.439 µM
  TGI: 23.4 µM
[7]
  GI50: 0.223 µM
  TGI: 14.7 µM
[8]
  GI50: 0.187 µM
  TGI: > 50 µM
[9]
  GI50: 0.369 µM
  TGI: > 50 µM
[10]
  GI50: 0.265 µM
  TGI: > 50 µM

## COc1cc2c(cc1OC)[C@@H](C(O)c1ccccc1)NCC2 (some centres not stated)
[1]
  TGI: > 100 µM
[2]
  TGI: > 100 µM
[3]
  TGI: > 100 µM
[4]
  TGI: > 100 µM
[6]
  TGI: > 100 µM
[7]
  TGI: > 100 µM
[8]
  TGI: > 100 µM
[9]
  TGI: > 100 µM
[10]
  TGI: > 100 µM

## O=Cc1[nH]c2ccccc2c1Br
[1]
  TGI: 50 µM
[2]
  TGI: > 100 µM
[3]
  TGI: 69.8 µM
[4]
  TGI: 67.2 µM
[6]
  TGI: 67.4 µM
[7]
  TGI: 66.3 µM
[9]
  TGI: > 100 µM
[10]
  TGI: 68.6 µM

## CCCCC(=O)[O-].N.N.N.N.N.[Co+3].[O-][Cl+3]([O-])([O-])[O-]
[1]
  GI50: > 100 µM
  TGI: > 100 µM
[2]
  GI50: > 100 µM
  TGI: > 100 µM
[3]
  GI50: > 100 µM
  TGI: > 100 µM
[4]
  GI50: > 100 µM
  TGI: > 100 µM
[6]
  GI50: > 100 µM
  TGI: > 100 µM
[7]
  GI50: > 100 µM
  TGI: > 100 µM
[8]
  GI50: > 100 µM
  TGI: > 100 µM
[9]
  GI50: > 100 µM
  TGI: > 100 µM
[10]
  GI50: > 100 µM
  TGI: > 100 µM

## O=C(N/N=C/c1cc(Br)cc(Br)c1[O-])c1ccccc1O.O=C(N/N=C/c1cc(Br)cc(Br)c1[O-])c1ccccc1O.[Mn+2]
[1]
  TGI: 22.9 µM
[2]
  TGI: 13.7 µM
[3]
  TGI: 10.6 µM
[4]
  TGI: 36 µM
[6]
  TGI: 21 µM
[7]
  GI50: 0.887 µM
  TGI: 15.9 µM
[8]
  TGI: 13.9 µM
[9]
  TGI: 25.5 µM
[10]
  TGI: 7.94 µM

## COC1=C(C(=O)OC(C)(C)C)[C@]2(C)C(C(=O)OC(C)(C)C)C(OC)=C(C(=O)OC(C)(C)C)[C@]2(C)C1C(=O)OC(C)(C)C (some centres not stated)
[1]
  TGI: > 100 µM
[2]
  TGI: > 100 µM
[3]
  TGI: > 100 µM
[4]
  TGI: > 100 µM
[6]
  TGI: > 100 µM
[7]
  TGI: > 100 µM
[8]
  TGI: > 100 µM
[9]
  TGI: > 100 µM
[10]
  TGI: > 100 µM

## CC(=O)O[C@@H]1CC(C)C2CC2C2=C(C(O)OC2O)[C@@H]1C(C)CCC=C(C)C (some centres not stated)
[3]
  TGI: 65.5 µM
[4]
  TGI: 99.5 µM
[6]
  TGI: 62.9 µM
[7]
  TGI: 40.3 µM
[8]
  TGI: 38.3 µM
[9]
  TGI: 51.7 µM
[10]
  TGI: 54.5 µM

## Cc1cc2c(c(C#N)c1C)NC(=O)C(CC(=O)O)C2=O (configuration not stated)
[1]
  TGI: > 100 µM
[2]
  TGI: > 100 µM
[3]
  TGI: > 100 µM
[6]
  TGI: > 100 µM
[7]
  TGI: > 100 µM
[8]
  TGI: > 100 µM
[9]
  TGI: > 100 µM
[10]
  TGI: > 100 µM

## CCc1nc2ccc(Cc3ccc(C(=O)NO)cc3)cc2c(=O)n1CCc1ccccc1
[2]
  GI50: 1.02 µM
  TGI: 2.6 µM
[3]
  GI50: 1.31 µM
  TGI: 3.91 µM
[4]
  GI50: 2.07 µM
  TGI: 7.57 µM
[5]
  GI50: 1.73 µM
  TGI: 4.79 µM
[6]
  GI50: 0.64 µM
  TGI: 2.47 µM
[7]
  GI50: 1.71 µM
  TGI: 3.41 µM
[8]
  GI50: 0.52 µM
  TGI: 2.07 µM
[9]
  GI50: 1.15 µM
  TGI: 2.99 µM
[10]
  GI50: 0.637 µM
  TGI: 16.7 µM

Source: PubChem BioAssay (NCI)
